Measurements from ChEMBL document CHEMBL1201862, “PubChem BioAssay data set” (2004).
Activity calls are given as the source filed them.

Tests used:
[1] = biological target: Glucose-6-phosphate 1-dehydrogenase (Homo sapiens, UniProt P11413); test: human G6PD enzyme inhibitors, dose response, selectivity assay for P. falciparum G6PD inhibitor project, biochemical, fluorescence (AID 504792); assay type: functional
[2] = biological target: T1, Polyadenylate-binding protein 1 (Homo sapiens, UniProt P11940); test: PABP1 MLLE–PAM2 interaction inhibitors, dose response, miRNA deadenylation inhibitor project, biochemical, fluorescence polarization, Cy5-PAM2 peptide, secondary (AID 602260); assay type: functional; conditions: read-out: IC50_Mean
T1 sequence (P11940 whole entry): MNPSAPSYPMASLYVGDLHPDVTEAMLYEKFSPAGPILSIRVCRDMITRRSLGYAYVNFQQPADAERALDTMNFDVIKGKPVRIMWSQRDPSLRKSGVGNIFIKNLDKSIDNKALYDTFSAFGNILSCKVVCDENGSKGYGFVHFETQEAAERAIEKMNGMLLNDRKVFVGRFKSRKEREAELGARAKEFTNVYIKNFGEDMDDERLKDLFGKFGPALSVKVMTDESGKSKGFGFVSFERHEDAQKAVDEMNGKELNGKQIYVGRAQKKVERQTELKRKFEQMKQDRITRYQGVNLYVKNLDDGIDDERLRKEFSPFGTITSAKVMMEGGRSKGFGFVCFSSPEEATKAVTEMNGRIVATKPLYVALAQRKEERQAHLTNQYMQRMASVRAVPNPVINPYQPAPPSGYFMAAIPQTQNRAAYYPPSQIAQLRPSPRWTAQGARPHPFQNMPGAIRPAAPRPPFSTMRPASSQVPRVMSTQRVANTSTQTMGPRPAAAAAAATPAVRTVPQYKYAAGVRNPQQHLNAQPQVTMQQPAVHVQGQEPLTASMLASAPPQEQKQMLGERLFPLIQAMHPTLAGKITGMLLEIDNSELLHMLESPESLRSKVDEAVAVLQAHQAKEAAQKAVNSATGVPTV

[3] = biological target: T1, Polyadenylate-binding protein 1; test: PABP1 MLLE–PAM2 binding inhibitor potency, dose response, biochemical, fluorescence polarization, FITC-PAM2 peptide (AID 602259); assay type: functional; conditions: read-out: IC50_Mean
[4] = biological target: T2, RNA-binding protein pos-1 (Caenorhabditis elegans, UniProt G5EF15); test: inhibitors of POS-1/mex-3 RNA binding, dose response, biochemical, fluorescence polarization (AID 1964);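 also: purified POS-1 fused to maltose binding protein made in E. coli; potency of compounds blocking POS-1 binding to fluorescent RNA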
T2 sequence (G5EF15 whole entry): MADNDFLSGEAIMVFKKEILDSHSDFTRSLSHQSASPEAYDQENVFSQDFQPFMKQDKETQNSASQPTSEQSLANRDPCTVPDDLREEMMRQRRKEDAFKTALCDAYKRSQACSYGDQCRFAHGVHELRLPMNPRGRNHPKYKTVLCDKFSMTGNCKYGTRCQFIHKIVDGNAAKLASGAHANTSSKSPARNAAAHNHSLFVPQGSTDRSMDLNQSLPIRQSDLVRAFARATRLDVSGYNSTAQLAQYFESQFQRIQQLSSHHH

[5] = biological target: T3, Zinc finger protein mex-5 (Caenorhabditis elegans, UniProt Q9XUB2); test: MEX-5/TCR-2 RNA interaction inhibitors, dose response, biochemical, C. elegans, fluorescence polarization (AID 1960)
T3 sequence (Q9XUB2 whole entry): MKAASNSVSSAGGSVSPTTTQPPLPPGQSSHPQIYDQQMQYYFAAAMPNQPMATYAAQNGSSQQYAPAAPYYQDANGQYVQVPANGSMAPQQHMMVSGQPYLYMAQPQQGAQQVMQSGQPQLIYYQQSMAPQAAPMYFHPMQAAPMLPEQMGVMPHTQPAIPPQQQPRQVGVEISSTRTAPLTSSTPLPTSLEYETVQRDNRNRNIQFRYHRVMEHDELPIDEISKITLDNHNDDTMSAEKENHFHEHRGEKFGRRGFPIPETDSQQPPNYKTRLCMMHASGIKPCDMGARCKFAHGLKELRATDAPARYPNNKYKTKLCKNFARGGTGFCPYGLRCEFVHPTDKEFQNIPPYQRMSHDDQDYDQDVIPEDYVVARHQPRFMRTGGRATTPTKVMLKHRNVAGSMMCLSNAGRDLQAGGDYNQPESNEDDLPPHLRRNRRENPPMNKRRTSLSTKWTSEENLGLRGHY

H4 = test: Luminescence Cell-Based Dose Response HTS to Identify Activators of 5'UTR Stem-Loop Driven Prion Protein mRNA Translation in H4 Neuroglioblastoma Cells. [Related pubchem assays: 1829 (Project Summary), 1814 (Primary HTS)]; assay type: functional; conditions: Homo sapiens
[6] = Luminescence Cell-Based Dose Confirmation HTS to Identify Activators of 5'UTR Stem-Loop Driven Alpha-Synuclein mRNA Translation in H4 Neuroglioblastoma Cells. [Related pubchem assays: 1829 (Project Summary), 1814 (Primary HTS)]; assay type: functional
[7] = Luminescence Cell-Based Dose Response HTS to Identify Activators of Luciferase Translation or Activity in H4 […] Cells. [Related pubchem assays: 1829 (Project Summary), 1814 (Primary HTS)]; assay type: functional
[8] = growth suppression of beta-catenin-knockout colon cells, dose response, cell-based, HCT116, human colon tumor (AID 1045); assay type: functional;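 also: HCT116 colon tumor cells with beta catenin knocked out; cells exposed to compound for 60 hours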
[9] = growth suppression of PTEN-null colon cells, dose response, cell-based, HCT116 PTEN knockout (AID 1047); assay type: functional;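 also: HCT116 colon tumor cells with PTEN knocked out; cells exposed to compound for 60 hours before readout; potency for loss of cell viability measured by luminescence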
[10] = biological target: T4, Carboxy-terminal domain RNA polymerase II polypeptide A small phosphatase 1 (Homo sapiens, UniProt Q9GZU7); test: inhibitors of CTDSP1, concentration-response testing, biochemical assay, absorbance-based, actives from ultra-high-throughput screening (AID 540297); assay type: functional
T4 sequence (Q9GZU7 whole entry): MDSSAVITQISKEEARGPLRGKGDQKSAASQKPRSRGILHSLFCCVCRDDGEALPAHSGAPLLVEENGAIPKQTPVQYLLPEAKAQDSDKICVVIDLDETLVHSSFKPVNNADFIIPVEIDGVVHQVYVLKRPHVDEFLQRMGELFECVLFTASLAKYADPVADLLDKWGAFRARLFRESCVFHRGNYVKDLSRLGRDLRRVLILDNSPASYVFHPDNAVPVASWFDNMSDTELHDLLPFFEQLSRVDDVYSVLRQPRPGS

[11] = P. falciparum Dd2 growth inhibitors, dose response, SYBR Green, cherry-picked samples (AID 1159567); assay type: functional, cell-based
[12] = inhibitors of intracellular T. cruzi replication, confirmation, NIH3T3 host cells, beta-gal luminescence (AID 2044); assay type: functional, cell-based;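 also: intracellular parasites grown in NIH/3T3 mouse fibroblasts as host cells; luminescent beta-galactosidase reporter signal from transgenic T. cruzi replicating inside host cells; inhibitors lower the luminescence signal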
[13] = microbe, parasite or virus in culture; assay type: functional; conditions: Mycobacterium tuberculosis
[14] = cytotoxicity toward NIH3T3 fibroblasts, dose response, counter-screen, cell-based, ATP luminescence, mouse fibroblasts (AID 2010); assay type: functional;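 also: cells exposed to compound for about 90 hours before reading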
[15] = system: Streptococcus sp. 'group A'; test: growth inhibition of control SK(-) GAS strain, dose response, counter-screen for streptokinase expression inhibitor project, luminescence, kanamycin, BacTiterGlo, confirmation (AID 1900); assay type: functional, organism-based
Streptococcus = test: Group A Streptococcus viability loss, dose response, counter-screen for streptokinase expression inhibitor project, luminescence, BacTiterGlo (AID 1915); assay type: functional, organism-based;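 also: potency for reduction of bacterial viability or growth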
[16] = Luminescence Cell-Based Dose Retest to Confirm Inhibitors of Cancer Stem Cells. [Related pubchem assays (depositor defined):AID2717, AID2721]; assay type: functional; conditions: Homo sapiens
[17] = biological target: T5, Ubiquitin-conjugating enzyme E2 N (Homo sapiens, UniProt P61088); assay type: functional;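 also: Dose-response confirmation in a TR-FRET assay detecting UBC13-driven polyubiquitin chain formation, inhibition measured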
T5 sequence (P61088 whole entry): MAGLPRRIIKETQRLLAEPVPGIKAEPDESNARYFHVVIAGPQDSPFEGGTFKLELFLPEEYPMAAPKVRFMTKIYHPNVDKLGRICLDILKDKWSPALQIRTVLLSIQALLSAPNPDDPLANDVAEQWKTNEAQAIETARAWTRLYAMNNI

INS1 = test: beta cell apoptosis inhibitors, cytokine rescue, dose response, luminescence, retest (AID 449756); assay type: functional, cell-based; conditions: Rattus norvegicus;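 also: cell death triggered by IL-1 beta plus TNF-alpha plus IFN-gamma mixture; protective hits raise ATP signal compared with cytokine alone wells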
[18] = biological target: Heat shock protein HSP 90-alpha (Homo sapiens, UniProt P07900); assay type: functional, organism-based
Cytochrome P450 1A2 = biological target: T6, Cytochrome P450 1A2 (Homo sapiens, UniProt P05177);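 also: PubChem cytochrome P450 panel assay, CYP1A2 panel member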
T6 sequence (P05177 whole entry): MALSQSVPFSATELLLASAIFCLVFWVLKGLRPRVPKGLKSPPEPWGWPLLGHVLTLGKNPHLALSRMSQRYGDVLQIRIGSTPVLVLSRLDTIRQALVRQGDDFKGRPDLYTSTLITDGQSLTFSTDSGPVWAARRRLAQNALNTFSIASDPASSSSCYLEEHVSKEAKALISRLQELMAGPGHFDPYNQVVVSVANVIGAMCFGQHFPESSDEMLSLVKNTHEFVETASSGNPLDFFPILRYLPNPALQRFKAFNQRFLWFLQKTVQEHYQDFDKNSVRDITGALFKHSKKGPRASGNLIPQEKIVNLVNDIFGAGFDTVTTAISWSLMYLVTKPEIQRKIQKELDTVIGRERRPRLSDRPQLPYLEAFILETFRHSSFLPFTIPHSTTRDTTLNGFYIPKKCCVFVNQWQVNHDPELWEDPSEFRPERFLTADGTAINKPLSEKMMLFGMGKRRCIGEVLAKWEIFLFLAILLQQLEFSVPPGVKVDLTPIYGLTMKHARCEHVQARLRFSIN

Sequence of Glucose-6-phosphate 1-dehydrogenase (P11413 whole entry): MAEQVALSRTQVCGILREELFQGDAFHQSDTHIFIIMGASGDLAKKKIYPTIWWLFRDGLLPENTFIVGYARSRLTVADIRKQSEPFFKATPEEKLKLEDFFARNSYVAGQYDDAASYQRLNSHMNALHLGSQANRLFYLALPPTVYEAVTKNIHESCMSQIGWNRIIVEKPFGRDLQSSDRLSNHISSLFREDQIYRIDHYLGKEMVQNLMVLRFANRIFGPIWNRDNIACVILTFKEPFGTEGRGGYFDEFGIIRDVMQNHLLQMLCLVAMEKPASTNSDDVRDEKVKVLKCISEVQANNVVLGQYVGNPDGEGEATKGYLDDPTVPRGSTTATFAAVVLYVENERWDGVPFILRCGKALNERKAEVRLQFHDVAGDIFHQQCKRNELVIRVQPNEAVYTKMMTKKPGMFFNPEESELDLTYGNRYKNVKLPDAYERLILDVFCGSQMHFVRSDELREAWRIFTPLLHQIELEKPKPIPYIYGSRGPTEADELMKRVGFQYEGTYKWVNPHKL

Compound: CC(SCC(=O)Nc1ccccc1)c1nc(O)c2ccccc2n1 (centres undefined)
- IC50 [1]: 22.3 µM (inactive)

Compound: CCCCc1cn([C@@H](CCCCN)C(=O)N2CCNCC2)nn1
- IC50 [2]: > 66 µM (inactive)
- IC50 [3]: 21 µM (inactive)
- EC50 [4]: 31.9 µM (active)
- EC50 [5]: 26.1 µM (active)

Compound: NC(=S)N=Nc1c(O)[nH]c2ccc(F)cc12
- IC50 [2]: > 66 µM (inactive)
- IC50 [3]: > 66 µM (inactive)

Compound: O=c1c2ccccc2nnn1COc1ccc(Cl)cc1Br
- EC50 (H4): 15.6 µM (active)
- EC50 [6]: 0.383 µM (active)
- EC50 [7]: 29.7 µM (active)

Compound: O=[N+]([O-])c1ccc2c(c1)-c1ccccc1C2O (centres undefined)
- IC50 [1]: > 80 µM (inactive)

Compound: COc1ccc(Cl)cc1Nc1nc(-c2sc(NC(=O)c3ccccc3)nc2C)cs1
- EC50 [8]: 10.3 µM (active)
- EC50 [9]: 7.12 µM (active)

Compound: CC1CC(C)CN(C(=O)COC(=O)/C=C/c2ccco2)C1 (centres undefined)
- IC50 [10]: 19.9 µM (active)

Compound: O=C(CCc1ccccc1)NC(=S)Nc1ccc(S(=O)(=O)N2CCOCC2)cc1
- IC50 [2]: > 66 µM (inactive)
- IC50 [3]: > 66 µM (inactive)

Compound: N#C[C@@H]1[C@H](c2ccccc2-c2ccc(F)cc2)[C@H](CO)N1C(=O)NC1CCCC1
- AC50 [11]: 5.12 µM (active)

Compound: CC(=O)c1ccc(N2CCC(c3cc(-c4ccc(Cl)cc4Cl)[nH]n3)CC2)c([N+](=O)[O-])c1
- EC50 [12]: 1.24 µM (active)
- CC50 [13]: 29.2 µM (active)
- EC50 [14]: > 60 µM (inconclusive)
- EC50 [15]: 4.36 µM (active)
- EC50 (Streptococcus): 8.12 µM (active)
- AC50 [16]: 2.19 µM (active)

Compound: Cc1cc(Nc2cc(Cl)nc(Sc3ccc(NC(=O)C4CC4)cc3)n2)[nH]n1
- CC50 [13]: 35.8 µM (active)

Compound: O=[N+]([O-])c1cccc(C(=S)N2CCN(c3ccccc3)CC2)c1
- IC50 [2]: > 66 µM (inactive)
- IC50 [3]: > 66 µM (inactive)

Compound: CN1C(=O)c2cc(NC(=O)c3cnccn3)ccc2OC[C@H]2O[C@@H](CC(=O)N[C@H]3CCN(Cc4ccccc4)C3)CC[C@H]21
- AC50 [11]: 6.41 µM (active)

Compound: Cc1ccc(OC/C(O)=C(\C#N)c2nc3ccccc3s2)cc1
- CC50 [13]: > 40 µM (active)
- AC50 [16]: 6.14 µM (active)

Compound: Cc1ccc(C(=O)Cn2nnc3ccccc32)cc1
- EC50 (H4): 77.2 µM (active)
- EC50 [6]: 0.276 µM (active)
- EC50 [7]: 0.325 µM (active)

Compound: CCOc1ccc(Cl)cc1/C=N/NC(N)=O
- IC50 [1]: > 80 µM (inactive)
- IC50 [17]: > 20 µM (inactive)

Compound: O=C1CC(=O)N2N=C(c3ccc([N+](=O)[O-])cc3)SC2=N1
- IC50 [10]: 5.67 µM (active)

Compound: O=C(O)c1cccc(-n2cccc2/C=C2/NC(=O)N(c3cccc(Cl)c3)C2=O)c1
- IC50 [10]: 9.53 µM (active)

Compound: Cc1ccc(F)cc1NC(=O)c1sc2ncn(CC(=O)N3CCN(c4ccccn4)CC3)c(=O)c2c1C
- EC50 (H4): > 120 µM (not active)
- EC50 [6]: > 120 µM (not active)
- EC50 [7]: > 120 µM (not active)

Compound: CCN1C/C(=C/c2cccc([N+](=O)[O-])c2)C(=O)/C(=C/c2cccc([N+](=O)[O-])c2)C1
- AC50 (INS1): 2.24 µM (active)
- AC50 [18]: 4.21 µM (active)
- EC50 [8]: 0.062 µM (active)
- EC50 [9]: 0.085 µM (active)

Compound: CCN(CC)c1nc(N)nc(NS(=O)(=O)c2ccc(Cl)cc2)n1
- IC50 [1]: > 80 µM (inactive)

Compound: COCCNC(=O)C(c1ccncc1)N(Cc1ccccc1)C(=O)Cn1nnc2ccccc21 (centres undefined)
- EC50 (H4): 1.08 µM (active)
- EC50 [6]: 4.27 µM (active)
- EC50 [7]: 15.7 µM (active)

Compound: CCCS(=O)(=O)N1CCN=C1SCc1cccnc1
- IC50 [2]: > 66 µM (inactive)
- IC50 [3]: > 66 µM (inactive)

Compound: CON=C(C(=O)NC1C(=O)N2C(C(=O)O)=C(CSc3nc(=O)c(=O)[nH]n3C)CSC12)c1csc(N)n1 (centres undefined)
- IC50 [10]: 2.89 µM (active)

Compound: COc1ccc(C(=S)Nc2ccc(C)cc2)cc1
- IC50 [2]: > 66 µM (inactive)
- IC50 [3]: > 66 µM (inactive)

Compound: c1ccc(-c2ccc3c(n2)CCCO3)cc1
- EC50 (H4): 7.05 µM (active)
- EC50 [6]: 47.7 µM (active)
- EC50 [7]: 55.5 µM (active)

Compound: Cc1ccc(Nc2nc(N)c([N+](=O)[O-])c(N3CCCC(C)C3)n2)cc1C (centres undefined)
- CC50 [13]: 40 µM (active)
- AC50 [18]: 8.91 µM (active)

Compound: Cn1c(N=C(S)Nc2ccccc2)nc2ccccc21
- CC50 [13]: > 40 µM (active)

Compound: COCC(=O)N1[C@H](CO)[C@@H](c2ccccc2)C12CN(Cc1cc(F)ccc1F)C2
- AC50 [11]: 18.1 µM (active)

Compound: O=C(OCc1cc(=O)n2c(n1)sc1ccccc12)c1ccc2c(=O)n3c(nc2c1)CCC3
- IC50 [10]: 5.85 µM (active)

Compound: CCOc1ccc2c(c1)-c1c(ssc1=S)C(C)(C)N2C(=O)CSC1=NCCS1
- IC50 [2]: > 66 µM (inactive)
- IC50 [3]: > 66 µM (inactive)

Compound: O=C1C(O)=C(C2CCC(c3ccc(Cl)cc3)CC2)C(=O)c2ccccc21 (centres undefined)
- CC50 [13]: 12.8 µM (active)
- AC50 (Cytochrome P450 1A2): 10 µM (inconclusive)
